The source of these data is ChEMBL document CHEMBL3769312, “2-Sulfonamidopyridine C-region analogs of 2-(3-fluoro-4-methylsulfonamidophenyl)propanamides as potent TRPV1 antagonists” (Bioorg Med Chem, 2016).

Assay [1] addresses T1, Transient receptor potential cation channel subfamily V member 1 (Homo sapiens, UniProt Q8NER1). The assay is described as follows: Displacement of [3H]RTX from human TRPV1 expressed in CHO cells after 60 mins by scintillation counting analysis. It is filed as cell-based. (In general: In a radioligand displacement assay an active substance lowers the binding of a labelled ligand.)

The target of assay [2] is T1, Transient receptor potential cation channel subfamily V member 1. The experiment in a line: Agonist activity at human TRPV1 expressed in CHO cells assessed as (45)Ca2+ uptake after 5 mins by liquid scintillation counting analysis. It is filed as cell-based.
Assay [3] has the same target. The experiment in a line: Antagonist activity at human TRPV1 expressed in CHO cells assessed as inhibition of capsaicin-induced (45)Ca2+ uptake after 5 mins by liquid scintillation counting analysis. It is filed as cell-based.
For assay [4], the system named is Mus musculus. The assay is described as follows: Analgesic activity in ip dosed formalin-induced mouse pain model after 20 to 30 mins. It is filed as functional.

T1 sequence (Q8NER1 whole entry): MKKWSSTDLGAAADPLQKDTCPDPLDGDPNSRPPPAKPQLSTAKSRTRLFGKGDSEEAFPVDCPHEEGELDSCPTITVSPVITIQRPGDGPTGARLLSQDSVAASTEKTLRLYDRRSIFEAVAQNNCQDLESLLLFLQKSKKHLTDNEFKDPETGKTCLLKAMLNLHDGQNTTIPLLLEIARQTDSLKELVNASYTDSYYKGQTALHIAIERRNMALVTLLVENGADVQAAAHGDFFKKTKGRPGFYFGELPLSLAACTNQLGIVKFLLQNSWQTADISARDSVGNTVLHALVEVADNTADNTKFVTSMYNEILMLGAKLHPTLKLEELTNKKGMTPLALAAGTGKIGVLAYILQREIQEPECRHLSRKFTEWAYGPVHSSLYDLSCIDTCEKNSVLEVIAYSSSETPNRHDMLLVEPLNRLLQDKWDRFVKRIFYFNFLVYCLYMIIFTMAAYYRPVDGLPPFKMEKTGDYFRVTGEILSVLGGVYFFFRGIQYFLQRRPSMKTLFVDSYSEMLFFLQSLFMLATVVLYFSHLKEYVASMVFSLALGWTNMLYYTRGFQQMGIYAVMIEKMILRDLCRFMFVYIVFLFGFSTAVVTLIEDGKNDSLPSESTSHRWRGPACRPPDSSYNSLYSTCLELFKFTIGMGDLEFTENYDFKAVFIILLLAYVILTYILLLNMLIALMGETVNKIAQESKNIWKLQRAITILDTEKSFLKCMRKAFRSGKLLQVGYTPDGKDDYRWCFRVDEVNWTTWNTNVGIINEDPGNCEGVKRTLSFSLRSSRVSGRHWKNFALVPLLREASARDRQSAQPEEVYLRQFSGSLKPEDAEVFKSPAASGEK

As to `CC(C(=O)NCc1ccc(C(F)(F)F)nc1NS(=O)(=O)c1ccccc1)c1ccc(NS(C)(=O)=O)c(F)c1` (configuration not stated), the Ki result in assay [1] (cho) and in assay [3] (cho) was “Active” in each case. For the same molecule, the EC50 result in assay [2] was “Not Active”.
For the molecule `CC(C(=O)NCc1ccc(C(F)(F)F)nc1N(CC1CCCCC1)S(=O)(=O)c1ccccc1)c1ccc(NS(C)(=O)=O)c(F)c1` (configuration not stated), the Ki (commonly a measure of affinity in units of concentration, obtained from inhibition or displacement) is 2.3 nM in assay [1] (read-out: Ki) and 10 nM in assay [3] (read-out: Ki). For the same molecule, the EC50 result in assay [2] is given as “Not Active”.
For `CC(C(=O)NCc1ccc(C(F)(F)F)nc1N(Cc1ccccc1)S(=O)(=O)c1ccc(Cl)cc1)c1ccc(NS(C)(=O)=O)c(F)c1` (configuration not stated), in that order: 0.76 nM, 8.5 nM and “Not Active”.
For `CC(C(=O)NCc1ccc(C(F)(F)F)nc1N(Cc1ccc(Cl)cc1)S(=O)(=O)c1ccc(F)cc1)c1ccc(NS(C)(=O)=O)c(F)c1` (configuration not stated), in that order: 0.9 nM, 6 nM and “Not Active”.
As for `COc1ccc(CN(c2nc(C(F)(F)F)ccc2CNC(=O)C(C)c2ccc(NS(C)(=O)=O)c(F)c2)S(=O)(=O)c2ccccc2)cc1` (configuration not stated), the Ki in assay [1] (read-out: Ki) was determined as 7.5 nM; in assay [3] (read-out: Ki), 2.14 nM. Further, the EC50 result in assay [2] is given as “Not Active”.
Take `Cc1ccc(CN(c2nc(C(F)(F)F)ccc2CNC(=O)C(C)c2ccc(NS(C)(=O)=O)c(F)c2)S(=O)(=O)c2ccc(F)cc2)cc1` (configuration not stated): the figures for the Ki in assay [1] (read-out: Ki) and in assay [3] (read-out: Ki) were 3.28 nM and 7.08 nM, respectively. Further, the EC50 entry in assay [2] was “Not Active”.
Consider `CC(C(=O)NCc1ccc(C(F)(F)F)nc1N(c1ccc(F)cc1)S(=O)(=O)c1ccccc1)c1ccc(NS(C)(=O)=O)c(F)c1` (configuration not stated), for which the Ki worked out at 7.3 nM in assay [1] (read-out: Ki) and 11.8 nM in assay [3] (read-out: Ki). Further, in assay [2], the EC50 result is reported as “Not Active”.
The like results for `CC(C(=O)NCc1ccc(C(F)(F)F)nc1N(C)S(=O)(=O)c1ccccc1)c1ccc(NS(C)(=O)=O)c(F)c1` (configuration not stated) were, in that order, 698 nM, 100 nM and “Not Active”.
As to `CC1CCN(c2nc(C(F)(F)F)ccc2CNC(=O)C(C)c2ccc(NS(C)(=O)=O)c(F)c2)CC1` (configuration not stated), the Ki in assay [1] (read-out: Ki) was 7.9 nM; in assay [3] (read-out: Ki), 2.22 nM. In addition, in assay [2], the EC50 entry is given as “Not Active”.
Take `CC(C(=O)NCc1ccc(C(F)(F)F)nc1N(Cc1ccc(F)cc1)S(=O)(=O)c1ccc(F)cc1)c1ccc(NS(C)(=O)=O)c(F)c1` (configuration not stated): the results for the Ki in assay [1] (read-out: Ki) and in assay [3] (read-out: Ki) were 0.71 nM and 2.99 nM, respectively. For the same molecule, in assay [2], the EC50 entry is “Not Active”.
On to `CC(C(=O)NCc1ccc(C(F)(F)F)nc1N(Cc1ccc(F)cc1)S(=O)(=O)c1ccccc1)c1ccc(NS(C)(=O)=O)c(F)c1` (configuration not stated), for which the Ki in assay [1] (read-out: Ki) came out at 2.32 nM; in assay [3] (read-out: Ki) it was 7.37 nM. In addition, in assay [2], the EC50 entry is listed as “Not Active”.
For the molecule `CC1CCN(c2nc(C(F)(F)F)ccc2CNC(=O)[C@@H](C)c2ccc(NS(C)(=O)=O)c(F)c2)CC1`, the Ki is 2.95 nM in assay [1] (read-out: Ki) and 1.26 nM in assay [3] (read-out: Ki). The EC50 result in assay [2] was “Not Active”.
As for `CC(C(=O)NCc1ccc(C(F)(F)F)nc1N(Cc1ccccc1)S(=O)(=O)C(C)C)c1ccc(NS(C)(=O)=O)c(F)c1` (configuration not stated), the Ki in assay [1] (read-out: Ki) came out at 18.1 nM; in assay [3] (read-out: Ki) it was 6.19 nM. In addition, in assay [2], the EC50 entry was “Not Active”.
The like results for `COc1ccc(CN(c2nc(C(F)(F)F)ccc2CNC(=O)C(C)c2ccc(NS(C)(=O)=O)c(F)c2)S(=O)(=O)c2ccc(F)cc2)cc1` (configuration not stated) were, in that order, 1.65 nM, 7.9 nM and “Not Active”.
Consider `Cc1ccc(CN(c2nc(C(F)(F)F)ccc2CNC(=O)C(C)c2ccc(NS(C)(=O)=O)c(F)c2)S(=O)(=O)c2ccccc2)cc1` (configuration not stated), for which the Ki in assay [1] (read-out: Ki) amounted to 1.85 nM; in assay [3] (read-out: Ki), 5.54 nM. In assay [2], the EC50 entry is recorded as “Not Active”.
With `CC(C(=O)NCc1ccc(C(F)(F)F)nc1N(Cc1ccc(Cl)cc1)S(=O)(=O)c1ccccc1)c1ccc(NS(C)(=O)=O)c(F)c1` (configuration not stated), the results for the Ki in assay [1] (read-out: Ki) and in assay [3] (read-out: Ki) were 1.29 nM and 5.77 nM, respectively. For the same molecule, in assay [2], the EC50 entry is “Not Active”.
The like results for `CC(C(=O)NCc1ccc(C(F)(F)F)nc1N(C(C)C)S(=O)(=O)c1ccccc1)c1ccc(NS(C)(=O)=O)c(F)c1` (configuration not stated) were, in that order, 410 nM, 27.6 nM and “Not Active”.
The like results for `C[C@H](C(=O)NCc1ccc(C(F)(F)F)nc1N(Cc1ccccc1)S(=O)(=O)c1ccccc1)c1ccc(NS(C)(=O)=O)c(F)c1` were, in that order, 0.54 nM, 1.81 nM and “Not Active”.
Regarding `CCS(=O)(=O)N(Cc1ccccc1)c1nc(C(F)(F)F)ccc1CNC(=O)C(C)c1ccc(NS(C)(=O)=O)c(F)c1` (configuration not stated), the results for the Ki in assay [1] (read-out: Ki) and in assay [3] (read-out: Ki) were 38 nM and 11.9 nM, respectively. In addition, the EC50 entry in assay [2] was “Not Active”.
The like results for `CC(C(=O)NCc1ccc(C(F)(F)F)nc1N(Cc1ccccc1)S(=O)(=O)c1ccc(F)cc1)c1ccc(NS(C)(=O)=O)c(F)c1` (configuration not stated) were, in that order, 1.56 nM, 3.87 nM and “Not Active”.
As for `CC(C(=O)NCc1ccc(C(F)(F)F)nc1N(Cc1ccccc1)S(C)(=O)=O)c1ccc(NS(C)(=O)=O)c(F)c1` (configuration not stated), the Ki in assay [1] (read-out: Ki) worked out at 101 nM; in assay [3] (read-out: Ki), 25 nM. Moreover, in assay [2], the EC50 entry was “Not Active”.
Regarding `CC(C(=O)NCc1ccc(C(F)(F)F)nc1N(Cc1ccccc1)S(=O)(=O)c1ccccc1)c1ccc(NS(C)(=O)=O)c(F)c1` (configuration not stated), the results for the Ki in assay [1] (read-out: Ki) and in assay [3] (read-out: Ki) were 1.99 nM and 5.9 nM, respectively. Besides, the EC50 result in assay [2] is “Not Active”. Also, in assay [4], the Activity entry is “Dose-dependent effect”. The 50% effect level in assay [4] (ED50) was put at a dose of 15.6 mg/kg.
For `CC(C(=O)NCc1ccc(C(F)(F)F)nc1N(c1ccccc1)S(=O)(=O)c1ccccc1)c1ccc(NS(C)(=O)=O)c(F)c1` (configuration not stated), the Ki in assay [1] (read-out: Ki) worked out at 18.3 nM; in assay [3] (read-out: Ki), 6 nM. Further, the EC50 entry in assay [2] is reported as “Not Active”.
With `CCCS(=O)(=O)N(Cc1ccccc1)c1nc(C(F)(F)F)ccc1CNC(=O)C(C)c1ccc(NS(C)(=O)=O)c(F)c1` (configuration not stated), in assay [2], the EC50 entry is recorded as “Not Active”.
